Our source for the EC50 and IC50 values is patent US11524940B1, “Inhibitors of cysteine proteases and methods of use thereof” (priority 2020, dated 2022).

Assay [1] concerns Human Coronavirus (HCov) 229E. Briefly: HCoV 229E cytopathic effect (CPE) assay. The class given is cell-based. The note with it: protection from virus-induced CPE, CellTiter Glo. On the technique in general: Cytopathic effects are the visible damage that an infection or toxin causes in cultured cells.
Description: The antiviral activity of compounds is calculated based on the protection of the virus-induced CPE at each concentration normalized by the virus control.
Reagents and instruments used in this assay include luminescent cell viability assay kit CellTiter Glo (Promega) and Microplate Reader Synergy2 (BioTek).
Cytopathic effect (CPE) is measured by CellTiter Glo following the manufacturer's manual. The antiviral activity of compounds is calculated based on the protection of the virus-induced CPE at each concentration normalized by the virus control.
Assay [2] addresses 229E Mpro (Human coronavirus 229E (HCoV-229E), UniProt P0C6X1). Briefly: 229E Mpro activity. The class given is biochemical. The note with it: read-out: 229E Mpro EC50.
Description: Compounds are assayed using standard methods to assess compound activity and IC50. […] The assay buffer contains 20 mM of Tris-HCl (pH 7.3), 100 mM of NaCl, 1 mM of EDTA, 5mM of TCEP and 0.1% BSA.
Assay [3] concerns the target SARS-CoV2 Mpro (Severe acute respiratory syndrome coronavirus 2 (2019-nCoV) (SARS-CoV-2), UniProt P0DTD1). Briefly: COVID-19 (SARS-CoV2) Mpro enzymatic assay. The class given is biochemical. Particulars: 25 nM Mpro, 25 μM substrate.

In general, EC50 refers to the concentration at which the effect is half-maximal. The term IC50 denotes the concentration at which inhibition is half-maximal. High values mean weaker potency in that assay, low ones greater potency in that assay.

229E Mpro, sequence (P0C6X1 2966-3267 limits assumed): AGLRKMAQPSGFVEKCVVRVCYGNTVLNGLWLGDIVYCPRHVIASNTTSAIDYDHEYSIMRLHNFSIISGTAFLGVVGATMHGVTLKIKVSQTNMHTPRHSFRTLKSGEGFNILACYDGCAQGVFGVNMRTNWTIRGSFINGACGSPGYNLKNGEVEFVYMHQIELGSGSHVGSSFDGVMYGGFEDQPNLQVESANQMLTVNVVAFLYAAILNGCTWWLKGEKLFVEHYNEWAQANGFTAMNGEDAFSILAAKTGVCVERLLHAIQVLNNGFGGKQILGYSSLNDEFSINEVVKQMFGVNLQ

`COc1cccc2[nH]c(C(=O)N[C@@H](CC(C)C)C(=O)N[C@@H](CC3CCNC3=O)C(C#N)NCc3ccccc3)cc12` (single isomer, unassigned) [507 (Isomer 1.2)]: the EC50 in assay [1] and in assay [2] was under 2 µM in each case.

As for `COc1cccc2[nH]c(C(=O)N[C@@H](CC(C)C)C(=O)N[C@@H](CC3CCNC3=O)C(C#N)NCc3ccccc3)cc12` (single isomer, unassigned) [507 (Isomer 1.1)], the EC50 in assay [1] (human coronavirus 229E) and in assay [2] was under 2 µM in each case.

Take `CC(C)C[C@H](NC(=O)c1cc2c(OC(F)F)cccc2[nH]1)C(=O)N[C@H](C#N)C[C@@H]1CCNC1=O` [Compound 509, N-[(1S)-1-[[(1S)-1-cyano-2-[(3S)-2-oxopyrrolidin-3-yl]ethyl]carbamoyl]-3-methyl-butyl]-4-(difluoromethoxy)-1H-indole-2-carboxamide]: the EC50 in assay [1] (human coronavirus 229E) and in assay [2] was under 2 µM each time.

`COc1cccc2[nH]c(C(=O)N[C@@H](CC3CCC3)C(=O)N[C@H](C#N)C[C@@H]3CCNC3=O)cc12` [Compound 577, N-[(1S)-2-[[(1S)-1-cyano-2-[(3S)-2-oxopyrrolidin-3-yl]ethyl]amino]-1-(cyclobutylmethyl)-2-oxo-ethyl]-4-methoxy-1H-indole-2-carboxamide]: the EC50 in assay [1] (human coronavirus 229E) and in assay [2] was under 2 µM each time.

With `CCCOc1cccc2[nH]c(C(=O)N[C@@H](CC3CC3)C(=O)N[C@H](C#N)C[C@@H]3CCNC3=O)cc12` [Compound 379, N-[(1S)-2-[[(1S)-1-cyano-2-[(3S)-2-oxopyrrolidin-3-yl]ethyl]amino]-1-(cyclopropylmethyl)-2-oxo-ethyl]-4-propoxy-1H-indole-2-carboxamide], the EC50 in assay [1] (human coronavirus 229E) and in assay [2] was under 2 µM each time.

With `COc1cccc2[nH]c(C(=O)N[C@@H](CC(C)C)C(=O)NC(C#N)c3cccnc3)cc12` (mixture of isomers) [Compound 433, N-[(1S)-1-[[cyano(3-pyridyl)methyl]carbamoyl]-3-methyl-butyl]-4-methoxy-1H-indole-2-carboxamide], the EC50 in assay [1] (human coronavirus 229E) is 2 to 10 µM; in assay [2], under 2 µM.

With `COc1cccc2[nH]c(C(=O)N[C@@H](CC(C)C)C(=O)N[C@@H](C[C@@H]3CCNC3=O)C(N)C#N)cc12` (stereo partly drawn) [Compound 344C, N-[(1S)-1-[[(1S)-2-amino-2-cyano-1-[[(3S)-2-oxopyrrolidin-3-yl]methyl]ethyl]carbamoyl]-3-methyl-butyl]-4-methoxy-1H-indole-2-carboxamide], the EC50 in assay [1] (human coronavirus 229E) and in assay [2] was under 2 µM each time.

`COc1cccc2[nH]c(C(=O)N[C@@H](CC(C)(C)C)C(=O)N[C@H](C#N)C[C@@H]3CCCNC3=O)cc12` [Compound 643, N-[(1S)-1-[[(1S)-1-cyano-2-[(3S)-2-oxo-3-piperidyl]ethyl]carbamoyl]-3,3-dimethyl-butyl]-4-methoxy-1H-indole-2-carboxamide]: the EC50 in assay [1] (human coronavirus 229E) and in assay [2] was under 2 µM throughout.

Consider `COc1ccc(Cl)c2[nH]c(C(=O)N3CC4(CCCCC4)CC3C(=O)N[C@H](C#N)C[C@@H]3CCNC3=O)cc12` (single isomer, unassigned) [882 (Isomer 2)], for which the IC50 in assay [3] was 10 to 30 µM. Moreover, the EC50 in assay [2] lay within 10 to 30 µM.

In assay [3], `N#C[C@H](C[C@@H]1CCNC1=O)NC(=O)C1CC2(CCC2)CN1C(=O)c1cc2ccc(Cl)c(Cl)c2[nH]1` (single isomer, unassigned) [814 (Isomer 2)] came in with an IC50 of under 2 µM. Moreover, the EC50 in assay [2] is under 2 µM.

With `COc1cccc2[nH]c(C(=O)N3CC4(CCCCC4)CC3C(=O)N[C@H](C#N)CC3CCC(C)(C)NC3=O)cc12` (single isomer, unassigned) [1111 (Isomer 4)], the IC50 in assay [3] was over 30 µM. The EC50 in assay [2] was over 30 µM.

`CC(C)(C)OC(=O)N1CCCCC12CCN(C(CC1CC1)C(=O)N[C@H](C#N)C[C@@H]1CCNC1=O)C2=O` (single isomer, unassigned) [473 (Isomer 1)] had an IC50 in assay [3] of over 30 µM. The EC50 in assay [2] was over 30 µM.

`CC1(C)CCC(C[C@@H](C#N)NC(=O)C2CC3(CCCCC3)CN2C(=O)c2cc3cccc(Cl)c3[nH]2)C(=O)N1` (single isomer, unassigned) [928 (Isomer 4)] yielded an IC50 in assay [3] of 2 to 10 µM. The EC50 in assay [2] was over 30 µM.

`N#C[C@H](C[C@@H]1CCCNC1=O)NC(=O)C1CC2(CN1C(=O)c1cc3cccc(Cl)c3[nH]1)CC(F)(F)C2` (single isomer, unassigned) [743 (Isomer 2)] had an IC50 in assay [3] of under 2 µM. For the same compound, the EC50 in assay [2] was under 2 µM.

The compound `N#C[C@H](C[C@@H]1CCCNC1=O)NC(=O)C1CC2(CCC2)CN1C(=O)c1cc2c(Cl)cccc2[nH]1` (single isomer, unassigned) [803 (Isomer 2)] gave an IC50 in assay [3] of over 30 µM. Besides, in assay [2], the EC50 is over 30 µM.

For `COc1cccc2[nH]c(C(=O)N[C@@H](CC(C)C)C(=O)N[C@H](C#N)C[C@@H]3CCNC3=O)cc12` [Compound 101, N-[(1S)-1-[[(1S)-1-cyano-2-[(3S)-2-oxopyrrolidin-3-yl]ethyl]carbamoyl]-3-methyl-butyl]-4-methoxy-1H-indole-2-carboxamide], the EC50 in assay [1] (human coronavirus 229E) and in assay [2] was under 2 µM each time.

In the case of `N#C[C@H](C[C@@H]1CCNC1=O)NC(=O)C1CC2(CCC2)CN1C(=O)c1cc2ccc(Cl)cc2[nH]1` (single isomer, unassigned) [990 (Isomer 1)], in assay [3], the IC50 was over 30 µM. Also, the EC50 in assay [2] was over 30 µM.

As to `COc1cccc2[nH]c(C(=O)N3C[C@H]4C([C@H]3C(=O)N[C@H](C#N)C[C@@H]3CCNC3=O)C4(C)C)cc12` (stereo partly drawn) [Compound 197, (2S,5S)-N-[(1S)-1-cyano-2-[(3S)-2-oxopyrrolidin-3-yl]ethyl]-3-(4-methoxy-1H-indole-2-carbonyl)-6,6-dimethyl-3-azabicyclo[3.1.0]hexane-2-carboxamide], the EC50 in assay [1] (human coronavirus 229E) and in assay [2] was under 2 µM each time.

In assay [3], `CC1(C)CC(C[C@@H](C#N)NC(=O)C2CC3(CCCCC3)CN2C(=O)c2cc3cccc(Cl)c3[nH]2)C(=O)N1` (single isomer, unassigned) [930 (Isomer 1)] displayed an IC50 of 10 to 30 µM. For the same compound, the EC50 in assay [2] was over 30 µM.

Consider `CC1(C)CC(C[C@@H](C#N)NC(=O)C2CC3(CCCCC3)CN2C(=O)c2cc3cccc(Cl)c3[nH]2)C(=O)N1` (single isomer, unassigned) [930 (Isomer 5)], for which the IC50 in assay [3] was in the range of 10 to 30 µM. The EC50 in assay [2] is over 30 µM.

Take `N#C[C@H](C[C@@H]1CCCNC1=O)NC(=O)C1CC2(CCC2)CN1C(=O)c1cc2c(Cl)cccc2[nH]1` (single isomer, unassigned) [803 (Isomer 1)]: in assay [3], the IC50 is over 30 µM. Further, the EC50 in assay [2] was over 30 µM.

Regarding `CC1(C)CC(C[C@@H](C#N)NC(=O)C2CC3(CCCCC3)CN2C(=O)c2cc3cccc(Cl)c3[nH]2)C(=O)N1` (single isomer, unassigned) [930 (Isomer 3.2)], the IC50 in assay [3] was in the range of 2 to 10 µM. Moreover, the EC50 in assay [2] fell in the range of 10 to 30 µM.

For `COc1cccc2[nH]c(C(=O)N[C@@H](CC(C)C)C(=O)N[C@@H](CC3CCNC3=O)C(C#N)NCc3ccccc3)cc12` (single isomer, unassigned) [507 (Isomer 2.2)], the EC50 in assay [1] and in assay [2] was under 2 µM throughout.

Compound `N#C[C@H](C[C@@H]1CCCNC1=O)NC(=O)C1CC2(CCC(F)(F)CC2)CN1C(=O)c1cc2cccc(Cl)c2[nH]1` (single isomer, unassigned) [805 (Isomer 2)] came in with an IC50 in assay [3] of under 2 µM. In addition, the EC50 in assay [2] is under 2 µM.

In the case of `COc1ccc(Cl)c2[nH]c(C(=O)N3CC4(CCC4)CC3C(=O)N[C@H](C#N)C[C@@H]3CCNC3=O)cc12` (single isomer, unassigned) [992 (Isomer 2)], the IC50 in assay [3] is over 30 µM. In addition, the EC50 in assay [2] is over 30 µM.

Take `N#C[C@@]1(NC(=O)[C@H](CC2CC2)NC(=O)OCc2ccccc2)C[C@@H]2CC[C@H]1[C@@H]1C(=O)NC(=O)[C@H]21` (single isomer, unassigned) [495 (Isomer 2)]: the IC50 in assay [3] is over 30 µM. In assay [2], the EC50 is over 30 µM.

In assay [3], `COc1ccc(Cl)c2[nH]c(C(=O)N3CC4(CCCCC4)CC3C(=O)NC(C#N)C[C@@H]3CCCNC3=O)cc12` (single isomer, unassigned) [902 (Isomer 4)] had an IC50 of over 30 µM. Further, the EC50 in assay [2] was over 30 µM.

For the compound `COc1cccc2[nH]c(C(=O)N3CC[C@H](c4ccccc4)[C@H]3C(=O)N[C@H](C#N)C[C@@H]3CCNC3=O)cc12` [Compound 163, (2S,3R)-N-((S)-1-cyano-2-((S)-2-oxopyrrolidin-3-yl)ethyl)-1-(4-methoxy-1H-indole-2-carbonyl)-3-phenylpyrrolidine-2-carboxamide], the IC50 in assay [3] was in the range of 2 to 10 µM. The EC50 in assay [2] lay in the range of 10 to 30 µM.

With `COC(=O)NS(=O)(=O)n1nccc1C(=O)N[C@@H](CC1CC1)C(=O)N[C@H](C#N)C[C@@H]1CCCNC1=O` [Compound 1258], the IC50 in assay [3] lay within 2 to 10 µM. In addition, the EC50 in assay [2] is 2 to 10 µM.

In assay [3], `CC1(C)CC(C[C@@H](C#N)NC(=O)C2CC3(CCCCC3)CN2C(=O)c2cc3cccc(Cl)c3[nH]2)C(=O)N1` (single isomer, unassigned) [930 (Isomer 3.1)] had an IC50 of under 2 µM. Besides, the EC50 in assay [2] is under 2 µM.

The compound `N#C[C@H](C[C@@H]1CCCNC1=O)NC(=O)C1CC2(CCC(F)(F)CC2)CN1C(=O)c1cc2cccc(Cl)c2[nH]1` (single isomer, unassigned) [805 (Isomer 1)] gave an IC50 in assay [3] of 10 to 30 µM. Also, the EC50 in assay [2] is over 30 µM.

In assay [3], `COc1cccc2[nH]c(C(=O)N[C@@H](CC3CC3)C(=O)N[C@](C)(C#N)CC3CCNC3=O)cc12` (single isomer, unassigned) [1055 (Isomer 2)] returned an IC50 of over 30 µM. Further, the EC50 in assay [2] is over 30 µM.

In assay [3], `CC1(C)CC(C[C@@H](C#N)NC(=O)[C@H](CC2CC2)NC(=O)c2cc3cccc(Cl)c3[nH]2)C(=O)N1` (single isomer, unassigned) [1053 (Isomer 1)] returned an IC50 of 2 to 10 µM. Also, in assay [2], the EC50 was over 30 µM.
